Test results taken from patent US12708791B2, “Management of dermal neurofibromatosis lesions” (Sun Pharmaceutical Industries, Inc., priority 2020, dated 2026).
“And” between values parts separate entries of the source, which are not always exact repeats. Equal entries are not always repeated.

Experiments:
Type in all cases: in vivo, human
[1] = tested on: neurofibromas; assay: Light microscopy exam (hematoxylin & eosin) of tumors biopsied at day 2; conditions: ALA-treated tumors, day 2 after PDT
Excerpt: (§1) (day 2), and 2 to 4 (day 14-28) weeks after light treatment, for evaluation of cutaneous adverse events. At day 2, tumors were biopsied using a punch technique and subjected to light microscopy exam, TUNEL assay (DeadEnd™ Colorimetric TUNEL System, Promega, Madison, WI), and DAPI (4′,6-diamidino-2-phenylindole) staining (ab228549, Abcam, Cambridge, MA). Additional follow-up visits for measurement of lesions were made at periods of 3 months up to one year. See FIG. 1 for a schematic of the study design. The primary outcome for this clinical study was MTD, as measured in the dose escalation using the DLT as defined above. A secondary outcome measured efficacy defined by change in lesion size. The area of the lesion was estimated at baseline and during follow-up visits by measuring the long and short axis of the lesion. Average growth rates were calculated and comparisons made between ALA-treated and placebo lesions within the same subject. The null hypothesis was that there would be no difference in the growth rates of ALA-treated lesions when paired with same-subject placebo lesions. The alternative hypothesis was there would be a difference in the ALA and placebo lesion growth rates.

[2] = tested on: neurofibroma lesions; assay: Lesion size and growth rate after PDT treatment
Excerpt: as §1

[3] = tested on: neurofibromas; assay: TUNEL assay for apoptotic cell death in tumors biopsied at day 2; conditions: all TUNEL evaluated tumor samples, five subjects; p=0.002 vs vehicle
Excerpt: as §1

[4] = tested on: superficial dermal neurofibromas; assay: Photosensitizer uptake and conversion: PpIX fluorescence in excised tumors by confocal microscopy
Method: Four adult subjects were enrolled (2 males, 2 females) in part 1. Three tumor groups for each subject consisted of untreated negative controls, tumors treated with drug vehicle only, and ALA (Levulan® Kerastick® Topical Solution, Sun Pharma, Wilmington, MA, USA) treated tumors. Treated tumors were incubated with ALA or vehicle three hours (2 subjects) or overnight (2 subjects), then excised and subjected to fluorescence microscopy studies to measure mean fluorescence indicating PpIX conversion in tumors. Four adult subjects (2 males, 2 females) participated in part 1. Ages ranged from 39 to 67 yrs.
Photosensitizer Uptake: Treated tumors were incubated with ALA or vehicle three hours (2 subjects) or overnight (2 subjects), then excised and subjected to fluorescence microscopy studies to measure mean fluorescence indicating PpIX conversion in tumors. Importantly, ALA delivery for the subjects undergoing overnight incubation was assisted using microneedling (Dermapen®, Salt Lake City, Utah) of the tumors. […] The primary outcome measure was the ratio of mean fluorescence intensity in tumors compared to adjacent normal tissue, as determined by confocal microscopy. PpIX signals were detected with excitation at 405 nm and emission with a 600 nm long pass filter.

[5] = tested on: neurofibroma lesions
Method: Nine adult subjects participated in part 2, four male and five female. Ages ranged from 39 to 69, with a median of 58. For each subject neurofibromalesions were selected for treatment with ALA (3-6 lesions) and vehicle (3-6 lesions) delivered with microneedling. Following an overnight (16-18 hrs.) incubation time, all treated neurofibromas were illuminated with red light at 633 nm and 105 mW/cm^2 (Omnilux Revive® LED illuminator, Photo Therapeutics, Montgomeryville, PA, USA). The dose escalation study included doses of 50, 100 or 200 J/cm^2. Each subject received one single treatment.
Study Design: This study followed a 3+3 Phase I trial design, subjects were treated starting at a dose level of 50 J/cm^2. Dose escalation was performed only after a minimum of three subjects had been evaluated at the current level. If dose-limiting toxicity (DLT) occurred in 1 of 3 subjects, 3 more subjects would be evaluated at that dose level. DLT was defined as pain during irradiation requiring cessation of the light treatment, or any serious cutaneous adverse events, such as erosions or blistering or crusting of the skin. If 0 of these 3 subjects experienced DLT, then the dose was escalated (only one DLT in six subjects). If DLT occurred in 1 of the additional 3 subjects, the […] tolerable dose (MTD) had been exceeded (two DLTs in six subjects) and 3 more subjects would be treated at the next lower dose (if only 3 subjects had been treated previously at that dose). […] The MTD is defined as that dose level immediately below the dose level at which 2 subjects of a cohort (three or six subjects) experience DLT.
as §1

Structure (SMILES): NCC(=O)CCC(=O)O [ALA, 5-aminolevulinic acid]
- Infiltrate on light microscopy [1]: mixed infiltrate consisting of lymphocytes, neutrophils, and rare eosinophils
- Tumor size change ([2]; measured at 2, 4 and 12 weeks after treatment, five subjects): did not show significant change
- Growth rate ALA ([2]; post PDT treatment, individual subjects): −0.073 (0.063) mm^2/day and 0.028 (0.040) mm^2/day and 0.097 (0.103) mm^2/day and 0.375 (00157) mm^2/day and −0.024 (0.030) mm^2/day
- Difference in growth rates (ALA vs placebo) ([2]; post PDT treatment, individual subjects, same-subject placebo lesions): 0.034 mm^2/day and −0.239 mm^2/day and 0.097 mm^2/day and −0.440 mm^2/day and −0.110 mm^2/day
- Average number of apoptotic cells per visual field [3]: 42.5±19.9
- Fluorescence compared to adjacent normal tissue ([4]; microneedled, overnight incubation): significant fluorescence
- Fluorescence in the apparent tumor zones ([4]; topical ALA, incubated 3 hrs., excised tumors from two subjects): no fluorescence
- Duration of post inflammatory hyperpigmentation ([5]; ALA-PDT treated NF lesions): up to 3 months
- Time by which edema and redness subsided ([5]; ALA-PDT treated NF lesions): ≤ 2 days
- Blister formation, erosion or crusting ([5]; human, in vivo): no blister formation, erosion or crusting
- Erythema and edema around lesions ([5]; human, in vivo): marked erythema and edema
- MTD (light dose) ([5]; human, in vivo): 100 J/cm^2
- Pain and discomfort induced by red light treatment ([5]; human, in vivo): marked pain and discomfort
- Subjects with DLT (pain requiring cessation of the light treatment) ([5]; human, in vivo): One subject
- Duration of erythema and edema ([5]; red light 105 mW/cm^2, 50 or 100 J/cm^2): at least 48 hrs.
